This is an account of results in patent US6869957B1, “Non-peptide tachykinin receptor antagonists” (Eli Lilly and Company, priority 1993, dated 2005).

Broadly, the IC50 is the concentration at which inhibition is half-maximal. A low value points to inhibition by little substance.

One experiment concerns the target T1, NK-1 receptor (Homo sapiens, UniProt P25103).
T1 construct: endogenous in cells; host or cells: IM9 cells (human cell line), whole cells
Kind of experiment: NK-1 Receptor Binding Assay (125I-labeled substance P, IM9 cells). The settings on record: for IC50: inhibits fifty percent of binding of 125I-substance P to IM9 cells. The method, boiled down: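 Radioligand binding on human IM9 cells, ended by filtration over glass fiber filters presoaked in 0.1% polyethylenimine. Specific binding of labeled substance P defined with 20 nM unlabeled ligand.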

A further experiment deals with T2, human NK-2 receptor (Homo sapiens, UniProt P21452).
T2 construct: expressed in transfected cells; host or cells: CHO-hNK-2R cells (CHO-derived), membrane preparation
T2 sequence (P21452 1-398): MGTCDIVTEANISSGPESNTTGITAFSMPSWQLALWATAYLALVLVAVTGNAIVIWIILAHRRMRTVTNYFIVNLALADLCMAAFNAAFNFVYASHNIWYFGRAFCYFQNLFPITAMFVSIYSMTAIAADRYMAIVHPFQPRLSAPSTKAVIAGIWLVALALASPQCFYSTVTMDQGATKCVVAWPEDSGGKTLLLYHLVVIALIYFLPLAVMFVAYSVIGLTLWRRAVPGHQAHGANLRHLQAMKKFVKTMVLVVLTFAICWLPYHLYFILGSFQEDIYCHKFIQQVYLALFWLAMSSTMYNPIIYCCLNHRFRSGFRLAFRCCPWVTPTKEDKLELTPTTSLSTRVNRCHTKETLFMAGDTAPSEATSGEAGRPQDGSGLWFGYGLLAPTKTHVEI
Kind of experiment: NK-2 Receptor Binding Assay ([125I]iodohistidyl-neurokinin A, CHO-hNK-2R membranes). The settings on record: for IC50: inhibits fifty percent of binding of [125I]iodohistidyl-neurokinin A to CHO-hNK-2R membranes; for NK-2 percent inhibition of binding: @ 10 μM. As to the method: The biological activity of the compounds of the present invention was evaluated employing an initial screening assay which rapidly and accurately measured the binding of the tested compound to known NK-1 and NK-2 receptor sites. Assays useful for evaluating tachykinin receptor antagonists are well known in the art. See. e.g., J. Jukic, et al., Life Sciences, 49:1463-1469 (1991); N. Kucharczyk, et al., Journal of Medicinal Chemistry, 36:1654-1661 (1993); N. Rouissi, et al., Biochemical and Biophysical Research Communications, 176:894-901 (1991).
NK-2 Receptor Binding Assay
The CHO-hNK-2R cells, a CHO-derived cell line transformed with the human NK-2 receptor, expressing about 400,000 such receptors per cell, were grown in 75 cm^2 flasks or roller bottles in minimal essential medium (alpha modification) with 10% fetal bovine serum. The gene sequence of the human NK-2 receptor is given in N. P. Gerard, et al., Journal of Biological Chemistry, 265:20455-20462 (1990).
For preparation of membranes, 30 confluent roller bottle cultures were dissociated by washing each roller bottle with 10 ml of Dulbecco's phosphate buffered saline (PBS) without calcium and magnesium, followed by addition of 10 ml of enzyme-free cell dissociation solution (PBS-based, from Specialty Media, Inc.). After an additional 15 minutes, the dissociated cells were pooled and centrifuged at 1,000 RPM for 10 minutes in a clinical centrifuge. Membranes were prepared by homogenization of the cell pellets in 300 ml 50 mM Tris buffer, pH 7.4 with a Tekma® homogenizer for 10-15 seconds, followed by centrifugation at 12,000 RPM (20,000×g) for 30 minutes using a Beckman JA-14® rotor. The pellets were washed once using the above procedure. and the final pellets were resuspended in 100-120 ml 50 mM Tris buffer, pH 7.4, and 4 ml aliquots stored frozen at −70° C. The protein concentration of this preparation was 2 mg/ml.
For the receptor binding assay, one 4-ml aliquot of the CHO-hNK-2R membrane preparation was suspended in 40 ml of assay buffer containing 50 mM Tris, pH 7.4, 3 mM manganese chloride, 0.02% bovine serum albumin (BSA) and 4 μg/ml chymostatin. A 200 μl volume of the homogenate (40 μg protein) was used per sample. The radioactive ligand was [^125I]iodohistidyl-neurokinin A (New England Nuclear, NEX-252), 2200 Ci/mmol. The ligand was prepared in assay buffer at 20 nCi per 100 μl; the final concentration in the assay was 20 pM. Non-specific binding was determined using 1 μM eledoisin. Ten concentrations of eledoisin from 0.1 to 1000 nM were used for a standard concentration-response curve.
All samples and standards were added to the incubation in 10 μl dimethylsulfoxide (DMSO) for screening (single dose) or in 5 μl DMSO for IC50 determinations. The order of additions for incubation was 190 or 195 μl assay buffer, 200 μl homogenate, 10 or 5 μl sample in DMSO, 100 μl radioactive ligand. The samples were incubated 1 hr at room temperature and then filtered on a 48 well Brandel cell harvester through GF/B filters which had been presoaked for two hours in 50 mM Tris buffer, pH 7.7, containing 0.5% BSA. The filter was washed 3 times with approximately 3 ml of cold 50 mm Tris buffer, pH 7.7. The filter circles were then punched into 12×75 mm polystyrene tubes and counted in a gamma counter.

T1 sequence (P25103 whole entry): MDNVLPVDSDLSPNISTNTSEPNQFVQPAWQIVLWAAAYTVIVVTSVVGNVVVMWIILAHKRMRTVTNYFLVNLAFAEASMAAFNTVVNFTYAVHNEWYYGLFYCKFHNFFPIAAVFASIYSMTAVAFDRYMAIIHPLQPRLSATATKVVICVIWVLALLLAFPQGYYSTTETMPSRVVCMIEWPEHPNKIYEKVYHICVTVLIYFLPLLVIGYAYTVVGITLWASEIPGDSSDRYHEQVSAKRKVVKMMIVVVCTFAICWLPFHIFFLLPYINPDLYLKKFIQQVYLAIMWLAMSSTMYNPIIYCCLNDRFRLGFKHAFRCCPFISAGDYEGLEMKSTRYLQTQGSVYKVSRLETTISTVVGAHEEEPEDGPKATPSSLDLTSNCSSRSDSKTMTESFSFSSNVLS

As for `COc1ccccc1CN(CC(Cc1c[nH]c2ccccc12)NC(=O)CN1CCC(c2ccccc2)CC1)C(C)=O` (centres unmarked) [Example 65], the IC50 came out at 7.2 nM at NK-1 receptor and 600 nM at human NK-2 receptor.

In the case of `COc1ccccc1CNCC(Cc1ccc2ccccc2c1)NC(=O)CN1CCN(c2ccccc2)CC1` (centres unmarked) [Example 136], at NK-1 receptor (@ 1 μM), the “NK-1 percent inhibition of binding” value is 47% @. Moreover, on human NK-2 receptor, the IC50 amounted to 710 nM.

Turning to `COc1ccccc1CN(CC(NC(c1ccccc1)(c1ccccc1)c1ccccc1)c1ccc(Cl)c(Cl)c1)C(C)=O` (centres unmarked) [Example 176], the “NK-1 percent inhibition of binding” value at NK-1 receptor (@ 5 μM) was 9% @ 5 μM. Also, the “NK-2 percent inhibition of binding” value on human NK-2 receptor was determined as 0% @.

Consider `COc1ccccc1CN(CC(Cc1c[nH]c2ccccc12)NC(=O)CN1CCN(c2cccc(C(F)(F)F)c2)CC1)C(C)=O` (centres unmarked) [Example 70], for which the IC50 at NK-1 receptor was found to be 13 nM; on human NK-2 receptor, 1000 nM.

In the case of `CC(=O)N(Cc1ccccc1)CC(Cc1c[nH]c2ccc(F)cc12)NC(=O)CN1CCC(N2CCCCC2)CC1` (centres unmarked) [Example 119], the IC50 turned out to be 9.5 nM on NK-1 receptor and 2700 nM at human NK-2 receptor.

In the case of `CC(NCC(Cc1c[nH]c2ccccc12)NC(=O)CN1CCC(N2CCCCC2)CC1)c1ccccc1` (centres unmarked) [Example 101], the IC50 was 97 nM on NK-1 receptor and 6000 nM on human NK-2 receptor.

On to `COc1ccccc1CN(CC(Cc1c[nH]c2ccccc12)NC(=O)CN1CCN(c2ccc(Cl)cc2)CC1)C(C)=O` (centres unmarked) [Example 69], for which the IC50 on NK-1 receptor is 5.4 nM; on human NK-2 receptor, 830 nM.

Turning to `CN(CC(Cc1c[nH]c2ccccc12)NC(=O)CN1CCN(C2CCCCC2)CC1)C(=O)c1ccccc1` (centres unmarked) [Example 158], the IC50 at NK-1 receptor came out at 450 nM; at human NK-2 receptor, 3800 nM.

On to `COc1ccccc1CN(CC(Cc1c[nH]c2ccccc12)NC(=O)CN1CCN(C2CCCCC2)CC1)C(C)=O` (centres unmarked) [Example 74], for which the IC50 amounted to 0.36 nM on NK-1 receptor and 1000 nM at human NK-2 receptor.

As for `CC(=O)N(CC1CCCCC1)CC(Cc1c[nH]c2ccccc12)NC(=O)CN1CCN(c2ccccc2)CC1` (centres unmarked) [Example 41], the IC50 on NK-1 receptor is 7.7 nM; on human NK-2 receptor, 930 nM.

Consider `COc1ccccc1CN(CC(Cc1c[nH]c2ccccc12)NC(=O)CCCc1ccccc1)C(C)=O` (centres unmarked) [Example 94], for which the values for the IC50 at NK-1 receptor and at human NK-2 receptor were 85 nM and 760 nM, respectively.

In the case of `COc1ccccc1CN(CC(Cc1ccccc1)NC(=O)CBr)C(C)=O` (centres unmarked) [Example 161a], the “NK-1 percent inhibition of binding” value at NK-1 receptor (@ 5 μM) is 77% @. Further, the half-maximal inhibitory concentration (IC50) on human NK-2 receptor was found to be 17600 nM.

Consider `COc1ccccc1CN(CC(Cc1c[nH]c2cc(C)ccc12)NC(c1ccccc1)(c1ccccc1)c1ccccc1)C(C)=O` (centres unmarked) [Example 171], for which, at NK-1 receptor (@ 5 μM), the “NK-1 percent inhibition of binding” value was 0% @ 5 μM. On human NK-2 receptor, the “NK-2 percent inhibition of binding” value is listed as 6% @.

As to `CCN(Cc1ccccc1OC)CC(Cc1c[nH]c2ccccc12)NC(=O)CN1CCN(c2ccccc2)CC1` (centres unmarked) [Example 9], the values for the IC50 at NK-1 receptor and at human NK-2 receptor were 84 nM and 640 nM, respectively.

Take `COc1ccccc1CN(CC(Cc1c[nH]c2ccccc12)NC(=O)CN1CCN(c2ccccc2)CC1)C(=O)COC(C)=O` (centres unmarked) [Example 32]: the IC50 turned out to be 0.98 nM at NK-1 receptor and 1100 nM on human NK-2 receptor.

As to `COc1ccccc1CN(CC(Cc1ccccc1)NC(=O)CN1CCN(c2ccccc2)CC1)C(C)=O` (centres unmarked) [Example 140], the values for the IC50 at NK-1 receptor and at human NK-2 receptor were 3.1 nM and 3000 nM, respectively.

With `CC(C)(C)OC(=O)NCC(=O)N(CC1CCCCC1)CC(Cc1c[nH]c2ccccc12)NC(=O)CN1CCN(c2ccccc2)CC1` (centres unmarked) [Example 154], the “NK-1 percent inhibition of binding” value on NK-1 receptor (@ 1 μM) was found to be 76% @. The molecule also yielded an IC50 on human NK-2 receptor of 210 nM.

For the molecule `CC(=O)N(Cc1ccccc1Cl)CC(Cc1c[nH]c2ccccc12)NC(c1ccccc1)(c1ccccc1)c1ccccc1` (centres unmarked) [Example 170], the IC50 at NK-1 receptor was 67 nM. The “NK-2 percent inhibition of binding” value on human NK-2 receptor turned out to be 2% @.

Turning to `COc1ccccc1CN(CC(Cc1ccccc1)NC(=O)CN1CCC(N2CCCCC2)CC1)C(C)=O` (centres unmarked) [Example 148], the results for the IC50 on NK-1 receptor and on human NK-2 receptor were 24 nM and 8500 nM, respectively.

For the molecule `CNC(=O)N(Cc1ccccc1OC)CC(Cc1c[nH]c2ccccc12)NC(=O)CN1CCN(c2ccccc2)CC1` (centres unmarked) [Example 29, 3-(1H-indol-3-yl)-1-[N-(2-methoxybenzyl)-N-(methylaminocarbonyl)amino]-2-[N-(2-((4-phenyl)piperazin-1-yl)acetyl)amino]propane], the IC50 at NK-1 receptor is 1.5 nM; at human NK-2 receptor, 1500 nM.

Consider `CC(=O)N(Cc1ccccc1)CC(Cc1c[nH]c2ccccc12)NC(=O)CN1CCC(N2CCCCC2)CC1` (centres unmarked) [Example 46], for which the IC50 was found to be 2.2 nM on NK-1 receptor and 2400 nM on human NK-2 receptor.

`CC(=O)N(Cc1cccc(F)c1)CC(Cc1c[nH]c2ccccc12)NC(=O)CN1CCN(c2ccccc2)CC1` (centres unmarked) [Example 20]: the IC50 worked out at 6 nM on NK-1 receptor and 870 nM at human NK-2 receptor.

Take `O=C(CN1CCN(c2ccccc2)CC1)NC(CNCc1ccccc1)Cc1c[nH]c2ccccc12` (centres unmarked) [Example 1]: the IC50 at NK-1 receptor worked out at 53 nM; at human NK-2 receptor it was 1700 nM.

In the case of `CC(=O)N(CC(Cc1c[nH]c2ccccc12)NC(=O)CN1CCC(N2CCCCC2)CC1)C(C)c1ccccc1` (centres unmarked) [Example 103], the IC50 was determined as 82 nM on NK-1 receptor and 3700 nM on human NK-2 receptor.

With `CC(=O)NC(Cc1c[nH]c2ccccc12)CN(Cc1ccccc1)C(=O)CN1CCC(N2CCCCC2)CC1` (centres unmarked) [Example 108], on NK-1 receptor (@ 1 μM), the “NK-1 percent inhibition of binding” value is on record as 76% @. In addition, the IC50 on human NK-2 receptor stood at 3500 nM.

In the case of `O=C(CN1CCN(c2ccccc2)CC1)NC(CNC(=O)c1ccccc1)Cc1c[nH]c2ccccc12` (centres unmarked) [Example 152], the IC50 on NK-1 receptor came out at 1200 nM; on human NK-2 receptor, 2000 nM.

For the molecule `COc1ccccc1CN(CC(Cc1c[nH]c2ccccc12)NC(=O)CN1CCN(c2ccccc2)CC1)C(=O)CC(=O)O` (centres unmarked) [Example 31], the half-inhibitory concentration (IC50) at NK-1 receptor stood at 9.2 nM; on human NK-2 receptor, 6200 nM.

With `COc1ccccc1CN(CC(Cc1c[nH]c2ccccc12)NC(=O)CNCc1cccnc1)C(C)=O` (centres unmarked) [Example 82], the IC50 is 13 nM on NK-1 receptor and 1200 nM on human NK-2 receptor.

Take `COc1ccccc1CNCC(Cc1c[nH]c2ccccc12)NC(C)=O` (centres unmarked) [Example 105]: the IC50 came out at 630 nM on NK-1 receptor and 15200 nM on human NK-2 receptor.

`COc1ccccc1CN(CC(NC(=O)CN1CCC(N2CCCCC2)CC1)c1ccccc1)C(C)=O` (centres unmarked) [Example 146]: the IC50 on NK-1 receptor was determined as 420 nM; at human NK-2 receptor, 3900 nM.

`COc1ccccc1CNCC(Cc1c[nH]c2ccccc12)NC(=O)CN1CCN(c2ccccc2)CC1` (centres unmarked) [Example 4]: the IC50 on NK-1 receptor turned out to be 40 nM; at human NK-2 receptor, 1500 nM.

`COc1ccccc1CN(CC(CC1CNc2ccccc21)NC(=O)CN1CCN(c2ccccc2)CC1)C(C)=O` (mixture of isomers) [Example 144]: the results for the IC50 on NK-1 receptor and on human NK-2 receptor were 52 nM and 1200 nM, respectively.

In the case of `CC(=O)NC(Cc1c[nH]c2ccccc12)CN(C(C)=O)C(C)c1ccccc1` (centres unmarked) [Example 100], at NK-1 receptor (@ 1 μM), the “NK-1 percent inhibition of binding” value is 77% @. Further, at human NK-2 receptor, the “NK-2 percent inhibition of binding” value was found to be 40% @.

For `COc1ccccc1CN(CC(Cc1cccc2ccccc12)NC(=O)CN1CCN(c2ccccc2)CC1)C(C)=O` (centres unmarked) [Example 141], the IC50 at NK-1 receptor is 11 nM; at human NK-2 receptor, 260 nM.
